Experimental data taken from patent publication US9957214B2, “Multifunctional radical quenchers” (ARIZONA BOARD OF REGENTS ON BEHALF OF ARIZONA STATE …, priority 2012, dated 2018).

Tests used:
FRDA lymphocytes = assay: Suppression of lipid peroxidation (C11-BODIPY581/591, FACS) in FRDA lymphocytes treated with diethyl maleate; type: cell-based; conditions: Lymphocyte, DEM, read-out: Scavenging activity (%), suppression of lipid peroxidation
Text: Several methods for assaying lipid peroxidation in vitro have been developed (Kuypers et al. (1987) Biochim Biophys Acta. 25, 266-274; Pap et al. (1999) FEBS Lett. 453, 278-282; Drummen et al. (2002) Free RadicBiol Med. 33, 473-490). Almost all of these methods are based on inhibition of free radical-induced oxidation reactions. A widely used fluorescence assay for lipid peroxidation uses lipid soluble cis-parinaric acid as a probe. cis-parinaric acid loses its fluorescence (λexc/em: 320/432 nm) upon interaction with peroxyl radicals and retains its fluorescence in the presence of radical quenchers. cis-parinaric acid is, however, air sensitive, photolabile and absorbs light in the UV region of the spectrum (at ˜320 nm). […] In practical terms, the results obtained using cis-parinaric as a probe for lipid peroxidation are confounded due to the overlapping of the compounds emission spectra with the cis-parinaric emission spectrum. C11-BODIPY^581/591 Oxidation to Measure Lipid Peroxidation To overcome the problem of spectral overlap using cis-parinaric acid, a fluorescence assay for lipid peroxidation using a lipophilic probe belonging to the BODIPY class of fluorescent dyes was used C11-BODIPY^581/591 (4,4-difluoro-5(4-phenyl-1,3-butadienyl)-4-bora-3a, 4a-diaza-s-indacene-3-propionic acid) fluorescent shifts from red to green upon oxidation. C11-BODIPY^581/591 (Molecular Probes, Eugene, Oreg., USA) stock solution concentrations were determined by measuring the absorption of C11-BODIPY^581/591 at 582 nm using a molar extinction coefficient of 140,000 mol^−1 cm^−1 (R. P. Haugland, (1999) Handbook of Fluorescent Probes and Research Chemicals, Molecular Probes, Inc., Eugene, Oreg.). The lipid peroxidation inducer 2,2′-Azobis (2-amidino-propane dihydrochloride) (AAPH) and the antioxidant compound α-tocopherol (α-TOH) were obtained from Sigma (St. Louis, Mo., USA). Phospholipid bilayers were prepared from 1-stearoyl-2-oleoyl-phosphatidylcholine (SOPC) and 1,2-dilinoleoyl-phosphatidylcholine (DLPC) and were purchased from Avanti® polar lipids, Inc., (Alabaster, Ala., USA). Preparation of Liposomes Phosphotidylcholine (PC) liposomes were prepared as described before (Guey-Shuang et al. (1982) Lipids. 17, 403-413). Briefly, DLPC (25 mg) were dissolved in chloroform and the solvent was removed by nitrogen evaporation (˜2 hours) to give a thin film of PC in a round bottom flask. The lipid film was hydrated with 50 mL of 10 mM Tris-HCl (pH 7.4), 100 mM KCl, shaken and sonicated for 15 seconds. The liposomes obtained were filtered several times through […] membrane filter. Measurement of C11-BODIPY^581/591 Oxidation C11-BODIPY^581/591 was incorporated into liposomes and oxidized by peroxyl radicals derived from the decomposition of AAPH in the presence and absence of compounds. Liposomes (1 mg/mL), suspended in 10 mM Tris-HCl (pH 7.4), 100 mM KCl, were transferred to a quartz 1 mL cuvette and placed in a Varian Cary Eclipse fluorometer (Varian, Cary, N.C.) equipped with a thermostatted cuvette holder at 40° C. Liposomes were pre-incubated for 10 min with 200 nM C11-BODIPY^581/591 to allow their incorporation into the lipid phase of the liposomes. After the addition of AAPH (10 mM) the decay of the red fluorescence was followed at λ exc=570 nm, λ em=600 nm. Relative fluorescence units were normalized to 100% intensity. Results obtained were verified by repeating experiments N=3 independent experiments. Measurement of C11-BODIPY^581/591 Oxidation in Cell Culture A quantitative FACS analysis of lipid peroxidation of FRDA lymphocytes, which had been treated with diethyl maleate following incubation in the presence and absence of the test compounds, was measured as described (Khdour et al. (2011) Pharmaceut. Res. 28, 2896-2909). Briefly, FRDA lymphocytes (5×10^5 cell/mL) were treated with the test compounds at final concentrations of 5 and 10 μM and incubated at 37° C. for 16 h in a humidified atmosphere containing 5% CO2 in air. […]

[1] = test system: NADH oxidase (complexes I, III and IV); assay: NADH oxidase activity (complexes I, III and IV) in submitochondrial particles; type: biochemical, bovine
[2] = test system: Friedreich's ataxia lymphoblast cell line GM15850; assay: Cytoprotection (trypan blue exclusion assay) of DEM-treated FRDA lymphocytes; type: cell-based; conditions: for viability at 5 µM / viability at 0.1 µM / viability at 0.5 µM / viability at 2.5 µM / viability at 1 µM: Homo sapiens, GM15850, DEM alone 18 ± 10% viability, read-out: Cytoprotection (cell viability, % of untreated control)
Protocol: Cell viability was determined by trypan blue exclusion assay in Friedreich's ataxia lymphoblast cell line GM15850 (Coriell Institute, New Jersey). This technique was used to assess the cytoprotective effects of the tested compounds in cultured cells treated with DEM to induce cell death by GSH depletion. The viability of DEM-treated FRDA cells was determined by their ability to exclude the dye trypan blue. Viable cells exclude trypan blue, whereas non-viable cells take up the dye and stain blue. Briefly, FRDA lymphocytes were grown in RPMI 1640 medium (Gibco) supplemented with 15% fetal calf serum, 2 mM glutamine (HyClone) and 1% penicillin-streptomycin mix (Cellgro). Cells were seeded at a density of 5×10^5 cells/mL and treated with different concentrations of the indicated compounds. Cells were incubated at 37° C. in a humidified atmosphere of 5% CO2 in air for 17 h. After pre-incubation, the cells were treated with 5 mM DEM. Cell viability was determined by staining cells with 0.4% trypan blue using a hemacytometer. At least 500 cells were counted in each experimental group. At the time of assay, <20% of DEM treated cells were viable (trypan blue negative), whereas in non DEM-treated control, >90% cells were viable. Cell viability was expressed as the percentage of control. Data are expressed as means±S.E.M. (n=3).
Cell viability was determined by trypan blue exclusion assay in Friedreich's ataxia lymphoblast cell line GM15850 (Coriell Institute). This technique was used to assess the cytoprotective effects of the compounds in cultured cells treated with diethyl maleate (DEM) to induce cell death by glutathione (GSH) depletion. The viability of DEM-treated FRDA cells was determined by their ability to exclude the dye trypan blue. Viable cells exclude trypan blue, whereas non-viable cells take up the dye and stain blue. […] Benzoquinone analogue 9 afforded greater cyoprotection to FRDA lymphocytes at 5 μM concentration than did the tert-butyl ester 6 (74 vs 50%).

[3] = target: bovine heart mitochondrial complex I (Bos taurus, UniProt P03887+P17694+P42026); assay: Complex I (NADH-Q1 oxidoreductase) inhibition in submitochondrial particles; type: biochemical; conditions: submitochondrial particles, 30° C.; for IC50: read-out: Complex I inhibition IC50; for Emax: read-out: Complex I inhibition Imax
Chain of bovine heart mitochondrial complex I (P25708 21-464): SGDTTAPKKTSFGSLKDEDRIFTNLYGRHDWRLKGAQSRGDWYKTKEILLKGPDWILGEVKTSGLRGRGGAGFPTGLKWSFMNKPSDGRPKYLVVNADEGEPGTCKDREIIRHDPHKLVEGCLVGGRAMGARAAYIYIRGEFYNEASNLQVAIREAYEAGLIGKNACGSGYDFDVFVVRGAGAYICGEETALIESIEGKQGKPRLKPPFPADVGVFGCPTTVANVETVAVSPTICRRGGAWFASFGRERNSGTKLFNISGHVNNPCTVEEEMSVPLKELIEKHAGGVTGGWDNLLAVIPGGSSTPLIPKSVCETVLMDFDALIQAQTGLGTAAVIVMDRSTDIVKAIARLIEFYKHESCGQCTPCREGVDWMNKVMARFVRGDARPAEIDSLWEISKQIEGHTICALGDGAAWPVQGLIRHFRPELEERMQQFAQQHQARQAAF
Chain of bovine heart mitochondrial complex I (P42026 38-216): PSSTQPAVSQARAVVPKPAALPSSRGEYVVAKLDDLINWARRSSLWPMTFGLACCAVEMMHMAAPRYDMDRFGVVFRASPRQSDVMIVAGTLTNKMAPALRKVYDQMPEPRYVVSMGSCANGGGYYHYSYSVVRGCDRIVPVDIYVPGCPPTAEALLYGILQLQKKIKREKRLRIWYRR
Chain of bovine heart mitochondrial complex I (P17694 34-463): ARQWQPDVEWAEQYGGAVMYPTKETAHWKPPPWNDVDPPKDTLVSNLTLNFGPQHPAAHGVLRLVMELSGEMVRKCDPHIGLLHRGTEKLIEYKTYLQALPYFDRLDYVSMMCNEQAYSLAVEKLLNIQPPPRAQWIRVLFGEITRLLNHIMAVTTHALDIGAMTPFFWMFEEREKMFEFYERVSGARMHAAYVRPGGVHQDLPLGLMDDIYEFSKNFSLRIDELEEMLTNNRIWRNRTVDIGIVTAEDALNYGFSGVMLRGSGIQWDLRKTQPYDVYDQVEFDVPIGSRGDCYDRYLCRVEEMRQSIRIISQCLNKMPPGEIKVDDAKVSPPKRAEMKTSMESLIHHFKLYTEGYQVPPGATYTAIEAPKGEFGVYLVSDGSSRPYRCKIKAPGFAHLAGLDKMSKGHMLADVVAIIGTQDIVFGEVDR
Chain of bovine heart mitochondrial complex I (P15690 24-727, further chain): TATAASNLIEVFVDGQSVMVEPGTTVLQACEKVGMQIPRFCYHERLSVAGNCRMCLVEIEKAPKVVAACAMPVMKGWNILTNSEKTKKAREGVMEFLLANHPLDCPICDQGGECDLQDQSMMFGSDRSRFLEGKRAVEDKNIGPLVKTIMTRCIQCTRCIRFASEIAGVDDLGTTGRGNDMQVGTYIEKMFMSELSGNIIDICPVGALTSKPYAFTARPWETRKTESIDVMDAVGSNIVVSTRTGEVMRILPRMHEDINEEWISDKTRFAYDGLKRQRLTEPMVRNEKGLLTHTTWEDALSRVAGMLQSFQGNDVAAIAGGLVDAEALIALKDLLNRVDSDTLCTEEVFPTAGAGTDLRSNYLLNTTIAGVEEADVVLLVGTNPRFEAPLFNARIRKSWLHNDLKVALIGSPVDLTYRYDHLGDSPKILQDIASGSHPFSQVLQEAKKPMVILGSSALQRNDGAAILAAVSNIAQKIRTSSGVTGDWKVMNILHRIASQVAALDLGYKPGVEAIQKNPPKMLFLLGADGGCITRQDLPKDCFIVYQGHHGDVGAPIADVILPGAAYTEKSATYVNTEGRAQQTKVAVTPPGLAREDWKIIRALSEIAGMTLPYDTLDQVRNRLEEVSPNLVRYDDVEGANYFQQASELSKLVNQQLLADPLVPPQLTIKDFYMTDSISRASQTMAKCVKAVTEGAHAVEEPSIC
Chain of bovine heart mitochondrial complex I (P03887 whole entry): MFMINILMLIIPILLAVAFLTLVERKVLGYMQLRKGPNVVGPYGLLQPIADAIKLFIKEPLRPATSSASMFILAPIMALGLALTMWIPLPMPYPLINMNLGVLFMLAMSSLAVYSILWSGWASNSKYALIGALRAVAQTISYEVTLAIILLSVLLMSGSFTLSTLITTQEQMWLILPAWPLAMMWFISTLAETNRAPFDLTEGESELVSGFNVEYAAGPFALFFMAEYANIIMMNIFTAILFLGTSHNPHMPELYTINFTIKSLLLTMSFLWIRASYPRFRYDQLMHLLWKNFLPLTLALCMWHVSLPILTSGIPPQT
Chain of bovine heart mitochondrial complex I (P42028 37-212, further chain): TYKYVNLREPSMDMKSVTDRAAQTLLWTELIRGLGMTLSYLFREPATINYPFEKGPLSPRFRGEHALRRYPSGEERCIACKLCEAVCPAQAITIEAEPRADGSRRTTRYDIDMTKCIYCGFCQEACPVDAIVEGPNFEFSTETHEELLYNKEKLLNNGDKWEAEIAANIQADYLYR

Structure (SMILES)	NADH oxidase activity (Complex I, III, IV) % ([1]; 1 μM) [%]	NADH oxidase activity (Complex I, III, IV) % ([1]; 5 μM) [%]	viability at 5 µM ([2]; 5 μM) [%]	IC50 [3] [µM]	Emax [3] [%]	further results
C=CCCCCCCCCCC1=C(OC)C(=O)C=C(OC)C1=O						melting point: 30 to 31 °C
C=CCCCCCCCCCC1=C(O)C(=O)C=C(OC)C1=O						melting point: 89 to 90 °C
CCCCCCCCCCCCCC1=C(O)C(=O)C=C(NCCCC(=O)O)C1=O [Compound 8, 4-(4-hydroxy-3,6-dioxo-5-tridecylcyclohexa-1,4-dienylamino)butanoic Acid]	77 ± 4.0	62 ± 3.0	36 ± 7.3	2 ± 0.1	84 ± 1.3	inhibition at 5 µM (FRDA lymphocytes): 8 ± 6.6%; inhibition at 10 µM (FRDA lymphocytes): 24%; Cytoprotection (in words) ([2]; 5 μM, compared with 6 and 9): least protection
CCCCCCCCCCCCCC1=C(OC)C(=O)C=C(NCCCC(=O)O)C1=O [Compound 9, 4-(4-methoxy-3,6-dioxo-5-tridecylcyclohexa-1,4-dienylamino)butanoic Acid]			74	1.9 ± 0.1	98 ± 2.8	inhibition at 5 µM (FRDA lymphocytes): 41 ± 7.2%; inhibition at 10 µM (FRDA lymphocytes): 51 ± 5%
CCCCCCCCCCCCCC1=C(O)C(=O)C=C(NCCCC(=O)OCc2ccccc2)C1=O [Compound 11, Benzyl 4-(4-hydroxy-3,6-dioxo-5-tridecylcyclohexa-1,4-dienylamino)butanoate]			48 ± 5.8	1.7 ± 0.1	70 ± 0.31	
CCCCCCCCCCCCCC1=C(OC)C(=O)C=C(NCCCC(=O)OCc2ccccc2)C1=O [Compound 12, benzyl 4-(4-methoxy-3,6-dioxo-5-tridecylcyclohexa-1,4-dienylamino)butanoate]	67 ± 6.0	48 ± 3.0	71 ± 6.4	34 ± 2.5	≥ 53	
CCCCCCCCCCCCCC1=C(O)C(=O)C=C(NCCCC(=O)OCCCC)C1=O [Compound 14, Butyl 4-(4-hydroxy-3,6-dioxo-5-tridecylcyclohexa-1,4-dienylamino)butanoate]			58 ± 9	11 ± 0.6	58 ± 4	
CCCCCCCCCCCCCC1=C(O)C(=O)C=C(NCCCC(=O)OCCCCCC)C1=O [Compound 17, Hexyl 4-(4-hydroxy-3,6-dioxo-5-tridecylcyclohexa-1,4-dienylamino)butanoate]			49 ± 9.9	2 ± 0.4	51 ± 1.4	inhibition at 5 µM (FRDA lymphocytes): 9 ± 2.5%; inhibition at 10 µM (FRDA lymphocytes): 40 ± 9.9%
CCCCCCCCCCCCCC1=C(O)C(=O)C=C(N(C)CCCC(=O)OCCCCCC)C1=O [Compound 23, hexyl 4-((4-hydroxy-3,6-dioxo-5-tridecylcyclohexa-1,4-dienyl)(methyl)amino)-butanoate]	82 ± 2.4	36 ± 1.0		3.4 ± 0.1	78 ± 0.8	NADH oxidase activity (Complex I, III, IV) % ([1]; 10 μM): 18 ± 0.5%
CCCCCCCCCCCCCC1=C(OC)C(=O)C=C(N(C)CCCC(=O)OCCCCCC)C1=O [Compound 24, Hexyl 4-((4-methoxy-3,6-dioxo-5-tridecylcyclohexa-1,4-dienyl)(methyl)amino)butanoate]	81 ± 1.5	33 ± 0.9		1.9 ± 0.1	90 ± 0.7	NADH oxidase activity (Complex I, III, IV) % ([1]; 10 μM): 17 ± 0.4%
CCCCCCCCCCCCCC1=C(O)C(=O)C=C(N(C)C)C1=O [Compound 25, 5-(dimethylamino)-2-hydroxy-3-tridecylcyclohexa-2,5-diene-1,4-dione]	18 ± 0.5	6.6 ± 0.1		1.5 ± 0.1	90 ± 3.4	NADH oxidase activity (Complex I, III, IV) % ([1]; 10 μM): 5.0 ± 0.1%; viability at 0.1 µM [2]: 21 ± 3%; viability at 0.5 µM [2]: 18 ± 4%; viability at 2.5 µM [2]: 24 ± 3%
CCCCCCCCCCCCCC1=C(OC)C(=O)C=C(N(C)C)C1=O [Compound 26, 5-(dimethylamino)-2-methoxy-3-tridecylcyclohexa-2,5-diene-1,4-dione]	70 ± 2.1	34 ± 0.6		1.6 ± 0.03	90 ± 1.1	NADH oxidase activity (Complex I, III, IV) % ([1]; 10 μM): 15 ± 0.4%; viability at 0.1 µM [2]: 53 ± 9%; viability at 0.5 µM [2]: 66 ± 3%; viability at 2.5 µM [2]: 90 ± 3%
CCCCCCCCCCCCCC1=C(O)C(=O)C=C(N(C)CCCC(=O)OC(C)(C)C)C1=O [Compound 29, tert-butyl 4-((4-hydroxy-3,6-dioxo-5-tridecylcyclohexa-1,4-dienyl)(methyl)amino)-butanoate]						viability at 1 µM [2]: 21%; viability at 2.5 µM [2]: 74 ± 4%
CCCCCCCCCCCCCC1=C(OC)C(=O)C=C(N(C)CCCC(=O)OC(C)(C)C)C1=O [Compound 30, tert-butyl 4-((4-methoxy-3,6-dioxo-5-tridecylcyclohexa-1,4-dienyl)(methyl)amino)-butanoate]						inhibition at 5 µM (FRDA lymphocytes): 97%; inhibition at 10 µM (FRDA lymphocytes): 100%; viability at 1 µM [2]: 64 ± 15%; viability at 2.5 µM [2]: 82 ± 5%
C=CCCCCCCCCCc1c(OC)c(OC)cc(OC)c1OC [Compound 34, 1,2,4,5-tetramethoxy-3-(undec-10-enyl)benzene]						melting point: 33 to 34 °C
C=CCCCCCCCCCC1=C(O)C(=O)C=C(NCCCCC=C)C1=O [Compound 37, 5-(hex-5-enylamino)-2-hydroxy-3-(undec-10-enyl)cyclohexa-2,5-diene-1,4-dione]						melting point: 77 to 78 °C
